The values below come from patent US20240269112A1 (priority 2020, published 2024).

Molecules are shown by their SMILES.

Data set [1] concerns septic patients who have undergone abdominal surgery. The settings on record: human, in vivo.
The test system is the same in data set [2]. The conditions noted are these: human, in vivo. The source says:
The following parameters related to kidney function have been determined: • Creatinine is a waste molecule generated from muscle metabolism. Creatinine originates from creatine, a very important molecule for energy production in the muscle. About 2% of creatine in the body is converted into creatinine every day. Creatinine is transported from muscles to the kidney by blood. The kidneys filter most of the creatinine and eliminate it in the urine. Determination of serum creatinine is a test which provides a fairly reliable indication of the state of kidney function. • Urea, the determination of which is the most widely used test to assess kidney function. Urea is the end product of protein and amino acid metabolism. In protein degradation, proteins are split into amino acids and deaminated. Urea is synthesized in the liver with the ammonia that is formed. This is the most important pathway for degrading excess nitrogen in the human body.
The source holds these as a separate data set.

Data set [3] relates to Covid-19 patients admitted to the ICU. Description: IV melatonin in Covid-19 ICU patients: systemic inflammatory response (ferritin, D-dimer, CRP, IL-6, lymphocytes). It is filed as in vivo, human. As to the method:
(§1) To conduct this study, all patients received standard treatment according to institutional protocols. Furthermore, patients were assigned randomly in a 2:1 ratio to receive: • Experimental group (12 patients): 7 days of 5 mg/kg body weight/day of intravenous melatonin every 6 hours. Daily maximum dose of 500 mg a day. • Control group (6 patients): 7 days of 5 mg/kg body weight/day of placebo with identical appearance through the intravenous route every 6 hours.
(§2) After 3 days of treatment, 3 intensive care physicians evaluated each participant and decided whether or not they wished to complete the treatment based on their clinical assessment: • If there were objective or subjective signs of improvement or non-worsening of general clinical condition or respiratory failure, with no observation of inflammatory condition or multiorgan failure, the participant continued treatment until completion. • If an adverse effect or clinical deterioration which can be objectively or subjectively attributed to the study drug was observed, treatment was discontinued.
(§3) The injectable composition was prepared according to the criteria established in Example 1 by adjusting the amounts to 5 mg/kg body weight/day of intravenous melatonin every 6 hours.
(§4) • To evaluate whether iv treatment with melatonin reduced the duration of ICU (intensive care unit) admission. • To evaluate whether iv treatment with melatonin reduced the duration of mechanical ventilation (MV). • To evaluate whether iv treatment with melatonin was associated with an increase in MV-free days. • To evaluate whether iv treatment with melatonin is associated with a reduction in systemic inflammatory response, defined by the levels of ferritin, D-dimer, C-reactive protein (CRP) or procalcitonin (PCT) and IL-6. 1. Evaluating Whether iv Treatment with Melatonin Reduced the Duration of ICU (Intensive Care Unit) Admission (See FIG. 7)

The test system is the same in data set [4]. The data set is described as follows: Efficacy and safety of IV melatonin in Covid-19 patients admitted to the ICU: hospital/ICU stay, mechanical ventilation, adverse reactions. It is filed as in vivo, human. The procedure:
as §1, §2, §3, §4

Data set [5] relates to septic patients who have undergone abdominal surgery. Description: Clinical study with septic patients: blood parameters (leukocytes, red blood cells, hemoglobin, hematocrit, neutrophils, lymphocytes, platelets). The settings on record: regardless of time, p=0.007.
Experimental: The following blood parameters from these samples were analyzed for each of the participating patients: the number of leukocytes, the number of red blood cells, hemoglobin, hematocrit, percentage of neutrophils, percentage of lymphocytes, and the number of platelets.
The test system is the same in data set [6]. The settings on record: human, in vivo. The source says:
The enzyme lactate dehydrogenase (or also called “lactic acid dehydrogenase” (LDH)), an enzyme which is found in almost all the tissues in the human body, has been determined to detect injuries in tissues such as the liver. It plays an important role in cellular respiration (the process in which glucose from foods is converted into energy which can be used by cells).
Although LDH is abundant in tissue cells, the levels in blood are generally low. However, when tissues are damaged as a result of an injury or a disease, they release more LDH into the blood stream. This increase in the amount of LDH in the blood stream is often caused by the following conditions: liver diseases, heart attacks, anemia, muscle trauma, bone fracture, cancer, infections such as meningitis, encephalitis, or HIV.
The source holds these as a separate data set.

Where [7] appears, read: 5 mg/kg/day iv every 6 hours, 7 days.

Take `COc1ccc2[nH]cc(CCNC(C)=O)c2c1` [melatonin, N-acetyl-5-methoxytryptamine]: in data set [1], the “ALP (alkaline phosphatase): average values between groups” value is reported as “not statistically significant”, the “GGT: average values between groups” value is listed as “not statistically significant”, the “GOT: differences in average values between groups” value is “not statistically significant” and the “GPT: average values between groups” value is “not statistically significant”. Also, in data set [2], the “Levels of creatinine compared between groups A and B in each time point” value is “no statistically significant differences”; the “Levels of urea compared between the two groups in each time point” value is “higher in group B (placebo)”. Further, in data set [3] (5 mg/kg/day for 7 days), the Inflammatory response result was “improvement in the inflammatory response”. For the same molecule, the “Levels of dimer-D (D-dimer)” value in data set [3] (during the days of treatment, FIG. 2) is on record as “reduction”. Besides, the Levels of ferritin result in data set [3] (during the days of treatment, FIG. 3) is on record as “reduction”. Also, in data set [3] (during the days of treatment, FIG. 4), the “Levels of CRP” value was “reduction”. Moreover, the IL6 result in data set [3] (during the days of treatment, FIG. 5) is “reduction”. For the same molecule, in data set [3] (during treatment), the Bilirubin entry is given as “has to drop” and the Neutrophils entry is “tendency of neutrophils decreasing”. For the same molecule, in data set [3] (during treatment, FIG. 6), the “Lymphocytes with respect to placebo” value is reported as “increase”. Also, in data set [4] (5 mg/kg/day for 7 days), the Adverse reactions entry is reported as “did not cause any adverse reactions”, the “Increase in the number of days without mechanical ventilation compared to placebo” value came out at 16 days and the “Reduction in invasive mechanical ventilation compared to placebo” value turned out to be 9 days. In data set [4] (setting [7]), the “Days without mechanical ventilation during hospitalization (MV-free days)” value is on record as 40 days, the “Duration of ICU admission compared to placebo” value was “no significant difference”, the “Duration of invasive mechanical ventilation” value was 21 days and the “Duration of non-invasive mechanical ventilation” value is reported as 16.5 days. The “Reduction in hospital stay compared to placebo” value in data set [4] (setting [7]) was 15 days. Also, the “Neutrophil average, group A compared with group B (placebo)” value in data set [5] is “higher in group B (placebo) than in group A (melatonin)”. Also, the “Levels of LDH compared between the two groups in each time point” value in data set [6] was “higher in group A (melatonin)”.
